The experiment has as its system Pseudomonas putida KT2442.

One compound from patent US20050158817A1, “Method for the production of a fermentation product from an organism” (Technische Universiteit Delft, priority 2003, published 2005) can be followed below.

Protocol: In accordance with the method of Weusthuis et al. (2001) Biopolymers 3a: Polyesters I: Biological Systems and Biotechnological Production, Wiley-VCH, pp. 291-316, Pseudomonas putida KT2442 was cultured in 8 litres of medium in a 10-litre fed-batch fermentor at 30° C. […] The carbon source in the culture consisted of free fatty acids obtained from coconut oil (Vereenigde Oliefrabrieken, Rotterdam, the Netherlands) in a concentration of 0.4 vol./vol. % per litre of medium, yielding 131 g dry bacteria mass per litre of medium. This carbon source causes the organism to accumulate polyhydroxy alkanoate inclusion bodies. After fermentation, the batter was stored for a maximum of 3 months at 4-8° C.
250 ml of fermentation batter of Pseudomonas putida KT2442 was stirred for 1 hour using a magnetic agitator. […] After adjusting the pH, the mixture was stirred for 30 minutes using a magnetic agitator, whereafter it was homogenised with the aid of a homogeniser (Constant Cell Disruption Systems, Low March, Leerdam, the Netherlands) having a cell volume of 10 ml. The homogeniser was operated at a temperature of 10° C. and the mixture to be homogenised was cooled between homogenisation passages. The number of homogenisation passages was varied from 0 to 5 and the effect of the homogenisation pressure in 1 passage was assessed at 1.0, 1.3, 1.6 or 2.0 kbar. […]

`N` [ammonium hydroxide]: the “release of inclusion bodies into the supernatant without homogenisation” value (pH 11, zero passages (N), cells stored 9 weeks at 4-8° C.) is “releases a fraction of the inclusion bodies into the supernatant even at zero passages”. The “fraction of free inclusion bodies released from the cells versus homogenisation pressure” value (pre-treatment at pH 11, 1 passage at 1.0, 1.3, 1.6 or 2.0 kbar, compared with untreated cells, FIG. 1) is “more inclusion bodies are released from the cells”.
